Measurements taken from US7030265B2, “Retinol derivatives, the method of preparations and the uses thereof” (Chebigen, Inc., priority 2001, dated 2006).
“And” between values parts separate entries of the source, which are not always exact repeats. Identical values can stand only once.

Assays:
Format in all cases: cell-based
[1] = target: T1, retinoic acid receptor α (Homo sapiens, UniProt P10276); assay: RAR activity test, DR5-tk-CAT reporter in HaCAT cells; settings: 1 μM, CAT ELISA, FIG. 2 (A)
T1 construct: expressed in transfected cells; b135 says HaCAT
T1 sequence (P10276 1-462): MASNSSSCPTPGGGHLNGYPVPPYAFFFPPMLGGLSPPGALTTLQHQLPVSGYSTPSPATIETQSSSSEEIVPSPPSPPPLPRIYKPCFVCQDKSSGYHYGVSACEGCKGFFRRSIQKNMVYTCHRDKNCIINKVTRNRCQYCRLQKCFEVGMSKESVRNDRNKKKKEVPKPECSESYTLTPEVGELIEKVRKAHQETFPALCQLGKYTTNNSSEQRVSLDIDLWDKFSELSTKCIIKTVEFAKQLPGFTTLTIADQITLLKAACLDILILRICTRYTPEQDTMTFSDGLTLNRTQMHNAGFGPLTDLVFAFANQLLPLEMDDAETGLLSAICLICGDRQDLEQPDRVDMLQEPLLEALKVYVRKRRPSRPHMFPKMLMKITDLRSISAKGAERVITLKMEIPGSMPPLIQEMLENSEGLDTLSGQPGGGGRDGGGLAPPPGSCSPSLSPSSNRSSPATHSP
Description: (§1) To analyze the effects of retinol-(N-formyl-aspartam) on the activity of retinoic acid receptor, skin cancer (HaCAT) cell lines were utilized to measure the activity of retinoic acid receptor/retinoid X receptor.
(§2) Recombinant DNA, DR5-tk-CAT or DR1-tk-CAT consisting of DR1 or DR5, effectors of retinoic acid receptor/retinoid X receptor, thymine kinase promoter, and CAT(chloramphenicol acetyl transferase) were mixed with the plasmid DNA expressing retinoic acid receptor α, β, ? or retinoid X receptor α, β, ? to cotransfect skin cancer (HaCAT) cell line with lipofectamine (GibcoBRL). The cotransfected cell lines were cultured for 1 day on DMEM/10% FBS media, each retinol derivatives (1 μM) were added and cultured for one more day, 5% CO2, 37° C. The cells were washed with phosphate-buffered saline (PBS), and the proteins were isolated from each cells, and the activity of β-galactosidase and protein contents were measured to determine transfection efficacy, the transcription level of RAR or RXR receptor were measured with CAT ELISA (Roche Molecular Biochemical, Mannheim, Germany).
To determine the effect of retinol-(N-formyl-aspartam) on retinoic acid receptors, each retinoic acid receptor (α, β, or ? ) expression vector and activity measuring DR5-tk-CAT plasmid were introduced with liposome. After treating cells with retinol-(N-formyl-aspartam), the cell extracts were isolated. The expression level of CAT were measured with CAT ELISA to determine the effect of retinol-(N-formyl-aspartam) on the activity of retinoic acid receptors.

[2] = target: T2, retinoid X receptor α (Homo sapiens, UniProt P19793); assay: RXR activity test, DR1-tk-CAT reporter in HaCAT cells; settings: 1 μM, CAT ELISA, FIG. 2 (B)
T2 construct: expressed in transfected cells; host or cells: HaCAT
T2 sequence (P19793 1-462): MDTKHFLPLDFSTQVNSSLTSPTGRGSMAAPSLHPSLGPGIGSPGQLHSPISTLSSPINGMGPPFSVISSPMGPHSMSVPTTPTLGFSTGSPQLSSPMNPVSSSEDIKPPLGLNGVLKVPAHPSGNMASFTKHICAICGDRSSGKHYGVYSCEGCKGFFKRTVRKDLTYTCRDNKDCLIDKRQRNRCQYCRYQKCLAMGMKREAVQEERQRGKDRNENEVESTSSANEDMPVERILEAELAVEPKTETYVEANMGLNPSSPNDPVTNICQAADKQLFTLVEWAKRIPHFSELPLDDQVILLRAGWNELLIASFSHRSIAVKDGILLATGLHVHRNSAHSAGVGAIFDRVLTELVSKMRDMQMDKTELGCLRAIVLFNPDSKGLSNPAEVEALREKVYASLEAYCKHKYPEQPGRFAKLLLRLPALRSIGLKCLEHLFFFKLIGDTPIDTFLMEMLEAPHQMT
Description: as §1, §2

[3] = target: T3, retinoid X receptor β (Homo sapiens, UniProt P28702); assay: as above; settings: 1 μM, CAT ELISA, FIG. 2 (B)
T3 construct: expressed in transfected cells; host or cells: HaCAT
T3 sequence (P28702 1-533): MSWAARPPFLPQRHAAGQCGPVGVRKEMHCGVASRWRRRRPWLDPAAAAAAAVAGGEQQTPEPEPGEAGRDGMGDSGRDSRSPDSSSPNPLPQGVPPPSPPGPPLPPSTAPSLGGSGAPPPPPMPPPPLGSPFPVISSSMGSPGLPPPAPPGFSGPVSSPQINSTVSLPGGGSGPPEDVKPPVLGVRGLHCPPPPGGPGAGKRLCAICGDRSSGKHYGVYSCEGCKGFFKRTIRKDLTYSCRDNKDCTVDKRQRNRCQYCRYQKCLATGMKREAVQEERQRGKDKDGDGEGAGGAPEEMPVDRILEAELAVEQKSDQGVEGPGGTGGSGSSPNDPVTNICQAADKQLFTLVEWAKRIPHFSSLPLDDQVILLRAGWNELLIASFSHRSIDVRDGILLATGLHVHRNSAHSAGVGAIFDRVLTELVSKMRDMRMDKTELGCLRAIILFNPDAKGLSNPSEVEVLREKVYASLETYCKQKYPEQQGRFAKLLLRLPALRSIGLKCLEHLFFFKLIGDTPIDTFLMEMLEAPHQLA
Description: as §1, §2

[4] = target: T4, retinoid X receptor γ (Homo sapiens, UniProt P48443); assay: as above; settings: 1 μM, CAT ELISA, FIG. 2 (B)
T4 construct: expressed in transfected cells; host or cells: HaCAT
T4 sequence (P48443 1-463): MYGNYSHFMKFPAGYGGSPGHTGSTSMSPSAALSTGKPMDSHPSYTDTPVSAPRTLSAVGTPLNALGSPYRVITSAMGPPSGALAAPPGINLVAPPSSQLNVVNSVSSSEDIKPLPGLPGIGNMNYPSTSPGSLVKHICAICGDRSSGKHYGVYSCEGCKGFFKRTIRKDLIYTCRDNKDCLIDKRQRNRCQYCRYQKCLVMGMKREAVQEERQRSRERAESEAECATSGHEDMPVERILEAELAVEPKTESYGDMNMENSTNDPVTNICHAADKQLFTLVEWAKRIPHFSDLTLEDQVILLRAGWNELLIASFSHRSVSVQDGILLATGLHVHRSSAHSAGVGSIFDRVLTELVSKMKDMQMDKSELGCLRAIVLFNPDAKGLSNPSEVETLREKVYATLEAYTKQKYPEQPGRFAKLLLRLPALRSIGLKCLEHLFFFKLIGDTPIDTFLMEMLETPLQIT
Description: as §1, §2

[5] = target: T1, retinoic acid receptor α; assay: RAR activity test, DR5-tk-CAT reporter in Cos-1 cells; settings: 1 μM, CAT ELISA, FIG. 3-5
Description: Recombinant DNA, DR5-tk-CAT consisting of DR5, effectors of retinoic acid receptor/retinoid X receptor, thymine kinase promoter, and CAT (chloramphenicol acetyl transferase) were mixed with the plasmid DNA expressing retinoic acid receptor α, β, ? and utilized to cotransfect skin cancer (HaCAT) cell line with lipofectamine (GibcoBRL). […] The cells were washed with phosphate-buffered saline (PBS), and the proteins were isolated from each cells, and the activity of β-galactosidase and protein contents were measured to determine transfection efficacy, the transcription level of RAR receptor were measured with CAT ELISA.
(§3) All procedures were done as Experimental Example 3.
as §3

[6] = system: activation protein-1 (AP-1); assay: Activity inhibition test of AP-1, Coll-CAT reporter in HaCAT cells; settings: c-Jun expression, in the presence of retinoic acid receptor α, CAT ELISA, FIG. 6
Protocol: Since the activation protein-1 (c-Jun is the constituent of AP-1) is transcription factor inducing expression of collagenase enzyme, which is a major cause of skin wrinkle, the effect of wrinkle prevention was determined by the activity inhibition test of AP-1.
CAT reporter (Coll-CAT) containing collagen promoter including AP-1 transcription factor binding site (TRE) were utilized to cotransfect skin cancer (HaCAT) cell line. The effect of retinol derivatives on the activity of AP-1 was measured by CAT ELISA. In some cases, the vector expressing c-Jun or retinoic acid receptors were utilized to cotransfect, and the effect of retinol derivatives on the transcription activity of c-Jun was analyzed.
With the assumption of the prepared retinol-(N-formyl-aspartam) derivatives which inhibit the activity of AP-1 causing skin wrinkle, would have the utility for cosmetics, the related investigations were proceeded. Similar to the experiment of retinoic acid receptor, AP-1 (c-jun) expression vector and Coll-CAT plasmid for the activity measurement were introduced into the skin cancer (HaCAT) cell line with liposome. After treating the cells with retinol-(N-formyl-aspartam) derivatives, the cell extracts were isolated. The expression level of CAT were measured with CAT ELISA to determine the effect of retinol-(N-formyl-aspartam) on the activity of the AP-1.

[7] = system: activation protein-1 (AP-1); assay: Activity inhibition test of AP-1, Coll-CAT reporter in Cos-1 cells; settings: for lowered the expression of collagenase (Coll-CAT): expression level in the presence of c-Jun expression set as 100%; for effect on AP-1 activity inhibition, compared in words: Coll-CAT
Description: CAT reporter (Coll-CAT) containing collagen promoter including AP-1 transcription factor binding site (TRE) was utilized to transfect Cos-1 cell line. Activity inhibition tests of activation protein-1 (AP-1) similar to the experimental example 6 were proceeded.

[8] = target: T5, retinoic acid receptor β (Homo sapiens, UniProt P10826); assay: RAR activity test, DR5-tk-CAT reporter in Cos-1 cells; settings: 1 μM, CAT ELISA, FIG. 3-5
T5 construct: expressed in transfected cells; b135 says HaCAT
T5 sequence (P10826 1-455): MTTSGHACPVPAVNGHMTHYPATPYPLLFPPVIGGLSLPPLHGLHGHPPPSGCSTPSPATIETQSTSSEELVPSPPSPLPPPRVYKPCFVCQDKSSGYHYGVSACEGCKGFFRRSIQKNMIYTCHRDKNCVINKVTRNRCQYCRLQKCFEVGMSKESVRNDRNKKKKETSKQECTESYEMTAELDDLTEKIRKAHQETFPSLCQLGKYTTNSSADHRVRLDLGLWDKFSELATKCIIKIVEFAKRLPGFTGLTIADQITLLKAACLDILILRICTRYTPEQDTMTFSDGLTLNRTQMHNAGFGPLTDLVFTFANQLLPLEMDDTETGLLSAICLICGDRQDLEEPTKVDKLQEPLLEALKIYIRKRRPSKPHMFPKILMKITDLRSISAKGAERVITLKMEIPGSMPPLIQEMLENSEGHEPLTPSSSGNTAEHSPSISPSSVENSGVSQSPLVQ

[9] = target: T6, retinoic acid receptor γ (Homo sapiens, UniProt P13631); assay: as above; settings: 1 μM, CAT ELISA, FIG. 3-5
T6 construct: expressed in transfected cells; b135 says HaCAT
T6 sequence (P13631 1-454): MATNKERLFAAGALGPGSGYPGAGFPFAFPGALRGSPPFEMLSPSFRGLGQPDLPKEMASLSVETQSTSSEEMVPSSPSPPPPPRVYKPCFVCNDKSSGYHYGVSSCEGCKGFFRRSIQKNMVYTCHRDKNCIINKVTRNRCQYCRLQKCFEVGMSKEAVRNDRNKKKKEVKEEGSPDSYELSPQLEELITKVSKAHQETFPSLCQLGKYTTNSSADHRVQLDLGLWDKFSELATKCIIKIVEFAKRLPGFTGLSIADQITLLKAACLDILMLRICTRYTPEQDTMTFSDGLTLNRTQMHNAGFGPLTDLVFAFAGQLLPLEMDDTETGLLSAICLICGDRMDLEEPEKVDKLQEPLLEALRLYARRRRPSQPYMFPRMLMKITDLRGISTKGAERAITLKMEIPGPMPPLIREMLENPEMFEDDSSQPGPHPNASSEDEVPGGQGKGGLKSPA

Row | activation of retinoic acid receptor α [1] | activation of retinoid X receptor α [2] | activation of retinoid X receptor β [3] | activation of retinoid X receptor γ [4] | activation of retinoic acid receptor α [5] | activation of retinoic acid receptor β [8] | activation of retinoic acid receptor γ [9] | SMILES | lowered the expression of collagenase (Coll-CAT) [6] | lowered the expression of collagenase (Coll-CAT) [7] | effect on AP-1 activity inhibition, compared in words [7]
1 | high activation | no activation | no activation | no activation | high activation |  |  | CC1=C(/C=C/C(C)=C/C=C/C(C)=C/CO)C(C)(C)CCC1 [retinol] | approximately 47% | approximately 43% | 
2 |  |  |  |  | high activation | weak activation | weak activation | CC1=C(/C=C/C(C)=C/C=C/C(C)=C/COC/C=C(C)/C=C/C=C(C)/C=C/C2=C(C)CCCC2(C)C)C(C)(C)CCC1 [retinol-(retinol), (1E,3E,5E,7E)-9[(2E,4E,6E,8E)-3,7-dimethyl-9-(2,6,6-trimethyl-1-cyclohexenyl)-2,4,6,8-nonatetraenyl]oxy-3,7-dimethyl-1-(2,6,6-trimethyl-1-cyclohexenyl)-1,3,5,7-nonateraene] |  | ~41.5% | 
3 |  |  |  |  |  |  |  | CC1=C(/C=C/C(C)=C/C=C/C(C)=C/COC(=O)/C=C(\C)C(=O)OC/C=C(C)/C=C/C=C(C)/C=C/C2=C(C)CCCC2(C)C)C(C)(C)CCC1 [retinol-(mesaconic acid), Di[(2E,4E,6E,8E)-3,7-dimethyl-9-(2,6,6-trimethyl-1-cyclohexenyl)-2.4,6,8-nonatetraenyl] (E)-2-methyl-2-butenedioate] |  | ~30% | less effect on AP-1 activity inhibition than retinoic acid or retinol
4 |  |  |  |  |  |  |  | CC1=C(/C=C/C(C)=C/C=C/C(C)=C/C(=O)O)C(C)(C)CCC1 [retinoic acid, reference compound] | approximately 60% | ~50% and ~47.5% | 
5 |  |  |  |  | high activation | weak activation | weak activation | CC1=C(/C=C/C(C)=C/C=C/C(C)=C/COC(=O)/C=C/C(=O)OC/C=C(C)/C=C/C=C(C)/C=C/C2=C(C)CCCC2(C)C)C(C)(C)CCC1 [retinol-(fumalic acid), Di[(2E,4E,6E,8E)-3,7-dimethyl-9-(2,6,6-trimethyl-1-cyclohexenyl)-2,4,6,8-nonatetraenyl] (E)-2-butenedioate] |  | approximately 42% | no significant effect on AP-1 activity inhibition than retinoic acid or retinol
